In the NIST ThermoML archive (doi:10.1016/j.jct.2006.01.008):
± gives the expanded uncertainty stated by the source.

Test: mn = molality of the nth substance listed, in mol/kg
Details: Liquid

O=[N+]([O-])[O-].[Li+] [lithium nitrate] + CO
Details | mass density [kg/m3]
298.15 K, 124 kPa, m1 = 0.1551 | 794.38 ± 0.23
298.15 K, 125 kPa, m1 = 0.2943 | 800.98 ± 0.23
298.15 K, 254 kPa, m1 = 0.8904 | 826.51 ± 0.21
298.15 K, 4856 kPa, m1 = 0.1551 | 798.86 ± 0.3
298.15 K, 5035 kPa, m1 = 0.2943 | 805.54 ± 0.3
298.15 K, 5745 kPa, m1 = 0.8904 | 831.27 ± 0.28
298.15 K, 10235 kPa, m1 = 0.2943 | 810.19 ± 0.37
298.15 K, 10235 kPa, m1 = 0.8904 | 835.02 ± 0.33
298.15 K, 11542 kPa, m1 = 0.1551 | 804.92 ± 0.39
298.15 K, 15247 kPa, m1 = 0.2943 | 814.48 ± 0.43
298.15 K, 15625 kPa, m1 = 0.8904 | 839.35 ± 0.39
298.15 K, 16024 kPa, m1 = 0.1551 | 808.79 ± 0.45
298.15 K, 19745 kPa, m1 = 0.1551 | 811.89 ± 0.5
298.15 K, 20056 kPa, m1 = 0.2943 | 818.43 ± 0.49
298.15 K, 20856 kPa, m1 = 0.8904 | 843.37 ± 0.44
298.15 K, 25158 kPa, m1 = 0.2943 | 822.44 ± 0.55
298.15 K, 25656 kPa, m1 = 0.8904 | 846.91 ± 0.49
298.15 K, 25856 kPa, m1 = 0.1551 | 816.76 ± 0.58
298.15 K, 30142 kPa, m1 = 0.1551 | 820.02 ± 0.63
298.15 K, 30235 kPa, m1 = 0.2943 | 826.24 ± 0.61
298.15 K, 30254 kPa, m1 = 0.8904 | 850.16 ± 0.54
298.15 K, 35626 kPa, m1 = 0.8904 | 853.78 ± 0.59
298.15 K, 35751 kPa, m1 = 0.2943 | 830.16 ± 0.67
298.15 K, 35785 kPa, m1 = 0.1551 | 824.09 ± 0.69
298.15 K, 39875 kPa, m1 = 0.2943 | 832.95 ± 0.71
298.15 K, 39897 kPa, m1 = 0.1551 | 826.91 ± 0.74
298.15 K, 39957 kPa, m1 = 0.8904 | 856.57 ± 0.62
298.27 K, 205 kPa, m1 = 3.614 | 928.48 ± 0.14
298.27 K, 5001 kPa, m1 = 3.614 | 931.92 ± 0.15
298.27 K, 10011 kPa, m1 = 3.614 | 935.38 ± 0.17
298.27 K, 15005 kPa, m1 = 3.614 | 938.69 ± 0.19
298.27 K, 19984 kPa, m1 = 3.614 | 941.89 ± 0.21
298.27 K, 25008 kPa, m1 = 3.614 | 945.02 ± 0.22
298.27 K, 30003 kPa, m1 = 3.614 | 948.03 ± 0.23
298.27 K, 35001 kPa, m1 = 3.614 | 950.96 ± 0.25
298.27 K, 40010 kPa, m1 = 3.614 | 953.79 ± 0.26
298.28 K, 189 kPa, m1 = 1.803 | 863.5 ± 0.18
298.28 K, 205 kPa, m1 = 0.5393 | 811.38 ± 0.22
298.28 K, 4985 kPa, m1 = 0.5393 | 815.76 ± 0.28
298.28 K, 4986 kPa, m1 = 1.803 | 867.42 ± 0.22
298.28 K, 9983 kPa, m1 = 1.803 | 871.31 ± 0.27
298.28 K, 9995 kPa, m1 = 0.5393 | 820.13 ± 0.35
298.28 K, 14986 kPa, m1 = 1.803 | 875.06 ± 0.31
298.28 K, 15005 kPa, m1 = 0.5393 | 824.3 ± 0.41
298.28 K, 19989 kPa, m1 = 1.803 | 878.65 ± 0.35
298.28 K, 19996 kPa, m1 = 0.5393 | 828.26 ± 0.47
298.28 K, 24989 kPa, m1 = 1.803 | 882.11 ± 0.39
298.28 K, 24994 kPa, m1 = 0.5393 | 832.06 ± 0.52
298.28 K, 29989 kPa, m1 = 1.803 | 885.44 ± 0.42
298.28 K, 29991 kPa, m1 = 0.5393 | 835.71 ± 0.58
298.28 K, 34990 kPa, m1 = 1.803 | 888.67 ± 0.46
298.28 K, 34996 kPa, m1 = 0.5393 | 839.23 ± 0.63
298.28 K, 39995 kPa, m1 = 0.5393 | 842.62 ± 0.68
298.28 K, 39997 kPa, m1 = 1.803 | 891.8 ± 0.49
323.15 K, 215 kPa, m1 = 0.8904 | 804.21 ± 0.23
323.15 K, 321 kPa, m1 = 0.2943 | 777.56 ± 0.25
323.15 K, 412 kPa, m1 = 0.1551 | 770.76 ± 0.26
323.15 K, 5026 kPa, m1 = 0.8904 | 809.05 ± 0.29
323.15 K, 5087 kPa, m1 = 0.2943 | 782.63 ± 0.32
323.15 K, 5784 kPa, m1 = 0.1551 | 776.58 ± 0.34
323.15 K, 9859 kPa, m1 = 0.1551 | 780.81 ± 0.41
323.15 K, 10214 kPa, m1 = 0.8904 | 814.03 ± 0.36
323.15 K, 10862 kPa, m1 = 0.2943 | 788.49 ± 0.41
323.15 K, 15038 kPa, m1 = 0.2943 | 792.54 ± 0.47
323.15 K, 15864 kPa, m1 = 0.8904 | 819.19 ± 0.43
323.15 K, 16173 kPa, m1 = 0.1551 | 787.05 ± 0.5
323.15 K, 19786 kPa, m1 = 0.1551 | 790.45 ± 0.55
